Measurements: patent publication US20240158446A1, “CYCLIC COMPOUND HAVING SELECTIVE INHIBITORY ACTION ON KRAS OVER HRAS AND NRAS” (CHUGAI SEIYAKU KABUSHIKI KAISHA, priority 2021, published 2024)
Where two headings read alike, the source gives them in different places. *1 amine or outer side, *2 acyl side, *3 side chain or, on linkers, in order; H or OH if unused. Where a SMILES comes first, the peptide text is derived from it. Bridges are numbered along the chain shown (N, C = ends). [ ]: non-standard residue; d: D form. The star is where a group is joined. hPhe(3,5-F2-4-CF3) = N[C@@H](CCc1cc(F)c(C(F)(F)F)c(F)c1)C(=O)O; hPhe(3-Cl-4-CF3) = N[C@@H](CCc1ccc(C(F)(F)F)c(Cl)c1)C(=O)O; X49 = CCCN([C@@H](Cc1ccc(OCC=[*:3])cc1)C(=O)[*:2])[*:1]; NPrPhe(4-CF3) = CCCN[C@@H](Cc1ccc(C(F)(F)F)cc1)C(=O)O; X48 = CN([C@@H](CCC=[*:3])C(=O)[*:2])[*:1]; X33 = C[C@@H]1CN([*:1])[C@@H]1C(=O)[*:2]; NMeGly(cPent) = CN[C@H](C(=O)O)C1CCCC1; Pro(4,4-F2) = O=C(O)[C@@H]1CC(F)(F)CN1; X8 = C[C@@](N[*:1])(C(=O)[*:2])C1CC1; Hyp = O=C(O)[C@@H]1C[C@@H](O)CN1; NMeD = CN[C@@H](CC(=O)O)C(=O)O; NMeL = CN[C@@H](CC(C)C)C(=O)O; Morpholide = C1CN(*)CCO1; Ac5c = NC1(C(=O)O)CCCC1; Aze = O=C(O)[C@@H]1CCN1; Sar = CNCC(=O)O

How the values were obtained:
[1] = tested on: human lung cancer strain NCI-H441;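 further: cell proliferation inhibition after four days measured by CellTiter-Glo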
[2] = target: GDP-bound NRAS wild-type protein (Homo sapiens, UniProt P01111); experiment: Binding to NRAS by surface plasmon resonance (SPR), Single Cycle Kinetics; conditions: for NRAS/KRAS (ratio of KD value for NRAS to KD value for KRAS) / NRAS/KRAS (ratio of KD value with respect to NRAS to KD value with respect to KRAS): GDP-bound NRAS wild-type protein vs GDP-bound KRAS wild-type protein
[3] = target: GDP-bound HRAS wild-type protein (Homo sapiens, UniProt P01112); experiment: Binding to HRAS by surface plasmon resonance (SPR), Single Cycle Kinetics; conditions: for HRAS/KRAS (ratio of KD value for HRAS to KD value for KRAS) / HRAS/KRAS (ratio of KD value with respect to HRAS to KD value with respect to KRAS): GDP-bound HRAS wild-type protein vs GDP-bound KRAS wild-type protein
GDP-bound HRAS wild-type protein, sequence (P01112 whole entry): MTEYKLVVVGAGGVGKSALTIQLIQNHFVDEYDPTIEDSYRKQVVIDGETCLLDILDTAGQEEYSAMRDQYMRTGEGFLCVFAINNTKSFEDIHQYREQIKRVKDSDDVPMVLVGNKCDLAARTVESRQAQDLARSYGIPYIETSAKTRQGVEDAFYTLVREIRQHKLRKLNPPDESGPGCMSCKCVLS

GDP-bound NRAS wild-type protein, sequence (P01111 whole entry): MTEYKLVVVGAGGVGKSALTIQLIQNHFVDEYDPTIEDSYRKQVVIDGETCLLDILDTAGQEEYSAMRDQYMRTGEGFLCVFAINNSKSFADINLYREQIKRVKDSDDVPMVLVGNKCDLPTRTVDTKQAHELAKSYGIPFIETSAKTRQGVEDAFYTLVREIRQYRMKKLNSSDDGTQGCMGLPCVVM

| IC50 [1] | SMILES | NRAS/KRAS (ratio of KD value for NRAS to KD value for KRAS) ([2]; SPR) | HRAS/KRAS (ratio of KD value for HRAS to KD value for KRAS) ([3]; SPR) | other results |
| --- | --- | --- | --- | --- |
| 30.8 nM | CCCN1C(=O)CN(C)C(=O)[C@@H]2[C@H](C)CN2C(=O)[C@H]([C@@H](C)CC)NC(=O)[C@H](CC(C)C)N(C)C(=O)C[C@@H](C(=O)N2CCOCC2)N(C)C(=O)[C@H](C2CCCC2)N(C)C(=O)C2(CCCC2)NC(=O)[C@@H]2CCCN2C(=O)[C@H](CCc2ccc(C(F)(F)F)c(Cl)c2)NC(=O)CN(C)C(=O)[C@@H]1Cc1ccc(C(F)(F)F)cc1 [PP0257] ([NMeL]I[X33][Sar][NPrPhe(4-CF3)][Sar][hPhe(3-Cl-4-CF3)]P[Ac5c][NMeGly(cPent)][NMeD]-Morpholide; lactam N-11) | B (a compound having 3 or more and less than 10 is denoted as B) | B (a compound having 3 or more and less than 10 is denoted as B) |  |
| 9.9 nM | CCCN1C(=O)CN(C)C(=O)[C@@H]2CCN2C(=O)[C@H]([C@@H](C)CC)NC(=O)[C@H](CC(C)C)N(C)C(=O)C[C@@H](C(=O)N(C)C)N(C)C(=O)[C@H](C2CCCC2)N(C)C(=O)C2(CCCC2)NC(=O)[C@@H]2CC(F)(F)CN2C(=O)[C@H](CCc2ccc(C(F)(F)F)c(Cl)c2)NC(=O)CN(C)C(=O)[C@@H]1Cc1ccc(C(F)(F)F)cc1 [PP0431] ([NMeL]I[Aze][Sar][NPrPhe(4-CF3)][Sar][hPhe(3-Cl-4-CF3)][Pro(4,4-F2)][Ac5c][NMeGly(cPent)][NMeD]-NMe2; lactam N-11) |  |  | NRAS/KRAS (ratio of KD value with respect to NRAS to KD value with respect to KRAS) ([2]; SPR): B (a compound having 3 or more and less than 10 is denoted as B); HRAS/KRAS (ratio of KD value with respect to HRAS to KD value with respect to KRAS) ([3]; SPR): C (A compound having a KD ratio of 0.1 or more and less than 3 is denoted as C) |
| 19.1 nM | CCC[C@H]1C(=O)N[C@@H](C2CCCCC2)C(=O)N(C)CC(=O)N(C)[C@H]2C/C=C\CCN(C2=O)[C@@H](Cc2ccc(C)cc2)C(=O)N(C)CC(=O)N[C@@H](CCc2ccc(C(F)(F)F)c(Cl)c2)C(=O)N2C[C@H](OCC)C[C@H]2C(=O)NC2(CC(C)(C)C2)C(=O)N(C)[C@@H](CC(C)(C)C)C(=O)N(C)[C@H](C(=O)N(C)C)CC(=O)N1C [PP3018] | A (a compound having 10 or more and less than 20 is denoted as A) | B (a compound having 3 or more and less than 10 is denoted as B) |  |
| 5.7 nM | CCO[C@@H]1C[C@H]2C(=O)NC3(CC(C)(C)C3)C(=O)N(C)[C@@H](C3CCCC3)C(=O)N(C)[C@H](C(=O)N(C)C)CC(=O)N(C)[C@@H](CC(C)C)C(=O)N[C@@H]([C@@H](C)CC)C(=O)N(C3CC3)CC(=O)N(C)[C@H]3C/C=C\CCN(C3=O)[C@@H](Cc3ccc(C)cc3)C(=O)N(C)CC(=O)N[C@@H](CCc3cc(F)c(C(F)(F)F)c(F)c3)C(=O)N2C1 [PP2109] | A (a compound having 10 or more and less than 20 is denoted as A) | A (a compound having 10 or more and less than 20 is denoted as A) |  |
|  | CCC(CC)[C@H]1C(=O)N(C)[C@H](C(=O)N2CCCCC2)CC(=O)N(C)[C@H]2CCC/C=C/c3ccc(cc3)C[C@@H](C(=O)N(C)CC(=O)N[C@@H](CCc3ccc(Cl)c(Cl)c3)C(=O)N3CCC[C@H]3C(=O)NC3(CC(C)(C)C3)C(=O)N1C)N1CC/C=C\C[C@@H](C1=O)N(C)C(=O)CN(C)C(=O)[C@H]([C@@H](C)CC)NC2=O [PP3055] | AA (a compound having 20 or more is denoted as AA) | A (a compound having 10 or more and less than 20 is denoted as A) | IC50 ([1]; read-out: NCI-H441 IC50, NCI-H441 cells, four days, CellTiter-Glo): 69.2 nM |
| 38.5 nM | CCO[C@@H]1C[C@H]2C(=O)NC3(CCC3)C(=O)N(C)[C@@H](C3CCCC3)C(=O)N(C)[C@H](C(=O)N(C)C)CC(=O)N(C)[C@@H](CC)C(=O)N[C@@H]([C@@H](C)CC)C(=O)N(C)CC(=O)N(C)[C@H]3CCCCCN(C3=O)[C@@H](Cc3ccc(F)cc3Cl)C(=O)N(C)CC(=O)N[C@@H](CCc3cc(F)c(C(F)(F)F)c(F)c3)C(=O)N2C1 [PP0908] | B (a compound having 3 or more and less than 10 is denoted as B) | B (a compound having 3 or more and less than 10 is denoted as B) |  |
|  | CCO[C@@H]1C[C@H]2C(=O)NC3(CCC3)C(=O)N(C)[C@@H](C3CCCC3)C(=O)N(C)[C@H](C(=O)N(CC)CC)CC(=O)N(C)[C@@H](CC(C)C)C(=O)N[C@@H]([C@@H](C)CC)C(=O)N(C)CC(=O)N(C)[C@H]3C/C=C\CCN(C3=O)[C@@H](Cc3ccc(C)cc3)C(=O)N(C)CC(=O)N[C@@H](CCc3ccc(C(F)(F)F)c(OC)c3)C(=O)N2C1 [PP1887] |  |  | IC50 ([1]; read-out: NCI-H441 IC50, NCI-H441 cell proliferation, 4 days, CellTiter-Glo): 19.2 nM; NRAS/KRAS (KD ratio) ([2]; ratio of KD for GDP-bound NRAS wild-type protein to KD for KRAS, SPR): A (a compound having 10 or more and less than 20 is denoted as A); HRAS/KRAS (KD ratio) ([3]; ratio of KD for GDP-bound HRAS wild-type protein to KD for KRAS, SPR): B (a compound having 3 or more and less than 10 is denoted as B) |
| 75.7 nM | CC[C@H](C)[C@@H]1NC(=O)[C@H](CC(C)C)N(C)C(=O)C[C@@H](C(=O)N2CCOCC2)N(C)C(=O)[C@H](C2CCCC2)N(C)C(=O)C2(CCC2)NC(=O)[C@@H]2[C@H]3C[C@H]3CN2C(=O)[C@H](CCc2cc(F)c(C(F)(F)F)c(F)c2)NC(=O)CN(C)C(=O)[C@H](Cc2ccc(C(F)(F)F)cc2)N2CCCCC[C@@H](C2=O)N(C)C(=O)CN(C)C1=O [PP0819] | A (a compound having 10 or more and less than 20 is denoted as A) | B (a compound having 3 or more and less than 10 is denoted as B) |  |
| 24.3 nM | CCO[C@@H]1C[C@H]2C(=O)NC3(CCC3)C(=O)N(C)[C@@H](C3CCCC3)C(=O)N(C)[C@H](C(=O)N3CCOCC3)CC(=O)N(C)[C@@H](COCC(F)(F)F)C(=O)N[C@@H]([C@@H](C)CC)C(=O)N(C)CC(=O)N(C)[C@H]3CCCCCN(C3=O)[C@@H](Cc3ccc(C(F)(F)F)cc3)C(=O)N(C)CC(=O)N[C@@H](CCc3cc(F)c(C(F)(F)F)c(F)c3)C(=O)N2C1 [PP0853] | B (a compound having 3 or more and less than 10 is denoted as B) | B (a compound having 3 or more and less than 10 is denoted as B) |  |
| 4.9 nM | CCCN1C(=O)CN(C)C(=O)CN(C)C(=O)[C@H]([C@@H](C)CC)NC(=O)[C@@H]2CCC=CCOc3ccc(cc3)C[C@H]1C(=O)N(C)CC(=O)N[C@@H](CCc1cc(F)c(C(F)(F)F)c(F)c1)C(=O)N1C[C@H](OCC)C[C@H]1C(=O)NC1(CCCC1)C(=O)N(C)[C@@H](C1CCCC1)C(=O)N(C)[C@H](C(=O)N(C)C)CC(=O)N2C [PP0900] ([X48]I[Sar][Sar][X49][Sar][hPhe(3,5-F2-4-CF3)][Hyp](Et)[Ac5c][NMeGly(cPent)][NMeD]-NMe2; staple 1-5; lactam N-11) | C (A compound having a KD ratio of 0.1 or more and less than 3 is denoted as C) | C (A compound having a KD ratio of 0.1 or more and less than 3 is denoted as C) |  |
| 83.9 nM | CC[C@H](C)[C@@H]1NC(=O)[C@H](Cc2cccc(F)c2)N(C)C(=O)C[C@@H](C(=O)N2CCOCC2)N(C)C(=O)[C@H](C2CCCC2)N(C)C(=O)C2(CCCC2)NC(=O)[C@@H]2CCCN2C(=O)[C@H](CCc2ccc(C(F)(F)F)c(Cl)c2)NC(=O)CN(C)C(=O)[C@H](Cc2ccc(F)cc2)N2CCCCC[C@@H](C2=O)N(C)C(=O)CN(C)C1=O [PP0962] | B (a compound having 3 or more and less than 10 is denoted as B) | B (a compound having 3 or more and less than 10 is denoted as B) |  |
| 434 nM | CCCN1C(=O)CN(C)C(=O)[C@@H]2CCN2C(=O)[C@H]([C@@H](C)CC)NC(=O)[C@H](CC(C)C)N(C)C(=O)C[C@@H](C(=O)N2CCOCC2)N(C)C(=O)[C@H](C2CCCC2)N(C)C(=O)[C@](C)(C2CC2)NC(=O)[C@@H]2CCCN2C(=O)[C@H](CCc2cc(F)c(C(F)(F)F)c(F)c2)NC(=O)CN(C)C(=O)[C@@H]1Cc1ccc(C(F)(F)F)cc1 [PP0772] ([NMeL]I[Aze][Sar][NPrPhe(4-CF3)][Sar][hPhe(3,5-F2-4-CF3)]P[X8][NMeGly(cPent)][NMeD]-Morpholide; lactam N-11) |  |  | NRAS/KRAS (ratio of KD value with respect to NRAS to KD value with respect to KRAS) ([2]; SPR): B (a compound having 3 or more and less than 10 is denoted as B); HRAS/KRAS (ratio of KD value with respect to HRAS to KD value with respect to KRAS) ([3]; SPR): B (a compound having 3 or more and less than 10 is denoted as B) |
| 314 nM | CC[C@H](C)[C@@H]1NC(=O)[C@H](CC(C)C)N(C)C(=O)C[C@@H](C(=O)N2CCOCC2)N(C)C(=O)[C@H](C2CCCC2)N(C)C(=O)C2(CCC2)NC(=O)[C@@H]2[C@@H](OCC3CCCC3)CCN2C(=O)[C@H](CCc2cc(F)c(C(F)(F)F)c(F)c2)NC(=O)CN(C)C(=O)[C@H](Cc2ccc(C(F)(F)F)cc2)N2CCCCC[C@@H](C2=O)N(C)C(=O)CN(C)C1=O [PP1011] | A (a compound having 10 or more and less than 20 is denoted as A) | B (a compound having 3 or more and less than 10 is denoted as B) |  |
| 33.9 nM | CCC[C@H]1C(=O)N[C@H]([C@@H](C)CC)C(=O)N(C)CC(=O)N(C)[C@H]2C/C=C\CCN(C2=O)[C@@H](Cc2ccc(C)cc2)C(=O)N(C)CC(=O)N[C@@H](CCc2cc(F)c(C(F)F)c(F)c2)C(=O)N2C[C@H](OCC)C[C@H]2C(=O)NC2(CC(C)(C)C2)C(=O)N(C)[C@@H](C(CC)CC)C(=O)N(C)[C@H](C(=O)N(C)C)CC(=O)N1C (stereo in doubt) [PP2783] |  |  | NRAS/KRAS (ratio of KD value with respect to GDP-bound NRAS wild-type protein to KD value with respect to KRAS) ([2]; SPR KD ratio NRAS/KRAS, class symbols): A (a compound having 10 or more and less than 20 is denoted as A); HRAS/KRAS (ratio of KD value with respect to GDP-bound HRAS wild-type protein to KD value with respect to KRAS) ([3]; SPR KD ratio HRAS/KRAS, class symbols): A (a compound having 10 or more and less than 20 is denoted as A) |
